Drawing on patent US9540323B2 (BRISTOL-MYERS SQUIBB COMPANY, priority 2012, dated 2017), this text covers Ki and IC50 for 20 compounds.

Assay [1] addresses cloned human P2Y1 receptors (Homo sapiens (Human), UniProt P47900). As to the kind of experiment: Binding Assay B - Scintillation Proximity Assay (SPA) for P2Y1 binding, [33P] 2MeS-ADP. The following applies: SPA, 0.3 nM [33P] 2MeS-ADP, Cheng-Prusoff; read-out: P2Y1 Ki (nM) using binding assay B. How it is done:
Binding Assay B—Scintillation Proximity Assay (SPA) for P2Y1 Binding
A SPA membrane binding assay was used to identify inhibitors of [^33P] […] Reactions were allowed to proceed to completion at room temperature for 1 hour followed by centrifugation of the plate for 5 min. About 40 μL of the aqueous solution was aspirated. Plates were sealed and the [^33P]
(Scintillation proximity formats need no separation of bound from free tracer.)

The test system of assay [2] is human platelet rich plasma (PRP). The experiment in a line: ADP induced platelet aggregation assay. Particulars: Homo sapiens, Platelet, 5 min, read-out: PA IC50 (μM) @ 10 μM ADP, human PRP, 10 μM ADP, AUC at 5 minute.

Counter-ions that a name gives are not always drawn.

Chain of cloned human P2Y1 receptors (P47900 whole entry): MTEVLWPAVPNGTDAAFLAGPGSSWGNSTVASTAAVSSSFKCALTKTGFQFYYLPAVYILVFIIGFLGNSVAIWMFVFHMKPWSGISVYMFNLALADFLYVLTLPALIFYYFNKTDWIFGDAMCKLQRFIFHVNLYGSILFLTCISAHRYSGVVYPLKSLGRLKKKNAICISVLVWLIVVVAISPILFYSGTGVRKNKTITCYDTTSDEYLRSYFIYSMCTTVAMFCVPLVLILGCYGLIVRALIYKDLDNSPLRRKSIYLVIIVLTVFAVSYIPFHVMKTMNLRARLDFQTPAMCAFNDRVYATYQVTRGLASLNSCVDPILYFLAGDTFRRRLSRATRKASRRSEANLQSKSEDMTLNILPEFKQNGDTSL

As to `Cc1nc(NC(=O)Nc2ccccc2N2CC(C)(C)c3c(C(F)(F)F)ccc(O)c32)cs1` [Example 15, 1-(2-(7-Hydroxy-3,3-dimethyl-4-(trifluoromethyl)indolin-1-yl)phenyl)-3-(2-methylthiazol-4-yl)urea], the Ki (as a rule, the dissociation constant of the complex between target and ligand, obtained from inhibition or displacement) in assay [1] stood at 7.3 nM. In addition, the IC50 – broadly, the concentration at which inhibition is half-maximal – in assay [2] is 0.95 µM.

For the compound `CC(C)(C)CN1CCC(c2ccc(NC(=O)Nc3ccccc3N3CC(C)(C)c4c(-c5ccc(Cl)cc5)c(F)cc(O)c43)cc2)CC1` [Example 240, 1-(2-(4-(4-Chlorophenyl)-5-fluoro-7-hydroxy-3,3-dimethylindolin-1-yl)phenyl)-3-(4-(1-neopentylpiperidin-4-yl)phenyl)urea], the Ki in assay [1] amounted to 13.7 nM. In addition, the IC50 in assay [2] is 0.31 µM.

Consider `CC1(C)CN(c2ccccc2NC(=O)Nc2csc(Cl)n2)c2c(O)ccc(-c3ccc(F)cc3)c21` [Example 198, 1-(2-Chlorothiazol-4-yl)-3-(2-(4-(4-fluorophenyl)-7-hydroxy-3,3-dimethylindolin-1-yl)phenyl)urea], for which the Ki in assay [1] came to 4.9 nM. The IC50 in assay [2] was found to be 0.09 µM.

Regarding `CC1(C)CN(c2ccccc2NC(=O)Nc2ccc(OC(F)(F)F)cc2)c2c(O)ccc(-c3ccncc3Cl)c21` [Example 114, 1-(2-(4-(3-Chloropyridin-4-yl)-7-hydroxy-3,3-dimethylindolin-1-yl)phenyl)-3-(4-(trifluoromethoxy)phenyl) urea], the Ki in assay [1] came to 26.5 nM. Also, the IC50 in assay [2] was determined as 0.53 µM.

For `CC1(C)CN(c2ccccc2NC(=O)Nc2ccc(C(F)(F)F)cc2)c2c(O)ccc(C(F)(F)F)c21` [Example 17, 1-(2-(7-Hydroxy-3,3-dimethyl-4-(trifluoromethyl)indolin-1-yl)phenyl)-3-(4-(trifluoro-methyl)phenyl)urea], the inhibition constant Ki in assay [1] was 16.4 nM. Moreover, the IC50 in assay [2] worked out at 0.27 µM.

On to `CC1(C)CN(c2ccccc2NC(=O)Nc2ccc(OC(F)(F)F)cc2)c2c(O)cc(F)c(-c3ccc(Cl)cc3)c21` [Example 214, 1-(2-(4-(4-Chlorophenyl)-5-fluoro-7-hydroxy-3,3-dimethylindolin-1-yl)phenyl)-3-(4-(trifluoromethoxy)phenyl)urea], for which the inhibition constant Ki in assay [1] worked out at 13.7 nM. Further, the IC50 in assay [2] is 0.21 µM.

Regarding `CC1(C)CN(c2ccccc2NC(=O)Nc2ccc(OC(F)(F)F)cc2)c2ccccc21` [Comparator 2, reference compound], the Ki in assay [1] was 8.7 nM. Besides, in assay [2], the 50% inhibitory concentration (IC50) is more than 20 µM.

Take `CC(C)n1nc(C(F)(F)F)cc1-c1c(F)cc(O)c2c1C(C)(C)CN2c1ccccc1NC(=O)Nc1nc2ccc(Cl)cc2s1` [Example 268, 1-(6-Chlorobenzo[d]thiazol-2-yl)-3-(2-(5-fluoro-7-hydroxy-4-(1-isopropyl-3-(trifluoromethyl)-1H-pyrazol-5-yl)-3,3-dimethylindolin-1-yl)phenyl)urea]: in assay [1], the Ki is 18.1 nM. Also, the 50% inhibitory concentration (IC50) in assay [2] turned out to be 0.45 µM.

For `CC(C)Cc1nc(-c2c(F)cc(O)c3c2C(C)(C)CN3c2ccccc2NC(=O)Nc2ccc(OC(F)(F)F)cc2)co1` [Example 260, 1-(2-(5-Fluoro-7-hydroxy-4-(2-isobutyloxazol-4-yl)-3,3-dimethylindolin-1-yl)phenyl)-3-(4-(trifluoromethoxy)phenyl)urea], the Ki in assay [1] stood at 18.8 nM. The IC50 in assay [2] was determined as 0.4 µM.

Consider `CC1(C)CN(c2ccccc2NC(=O)Nc2nc3ccc(F)cc3s2)c2c(O)cc(F)c(-c3nc4ccc(F)cc4s3)c21` [Example 146, 1-(2-(5-Fluoro-4-(6-fluorobenzo[d]thiazol-2-yl)-7-hydroxy-3,3-dimethylindolin-1-yl)phenyl)-3-(6-fluorobenzo[d]thiazol-2-yl)urea], for which the Ki in assay [1] worked out at 47.2 nM. Also, the IC50 in assay [2] was 0.3 µM.

As for `CCC1(CC)CN(c2ccccc2NC(=O)Nc2ccc(OC(F)(F)F)cc2)c2c(O)ccc(C=O)c21` [Example 73, 1-(2-(3,3-Diethyl-4-formyl-7-hydroxyindolin-1-yl)phenyl)-3-(4-(trifluoromethoxy)phenyl)urea], the Ki in assay [1] was found to be 4.5 nM. Besides, the IC50 in assay [2] stood at 0.9 µM.

Regarding `CC(C)CN1CCC(c2ccc(NC(=O)Nc3ccccc3N3CC(C)(C)c4c(-c5ccc(Cl)cc5)c(F)cc(O)c43)cc2)CC1` [Example 238, 1-(2-(4-(4-Chlorophenyl)-5-fluoro-7-hydroxy-3,3-dimethylindolin-1-yl)phenyl)-3-(4-(1-isobutylpiperidin-4-yl)phenyl)urea], in assay [1], the inhibitory constant (Ki) is 16.3 nM. The IC50 in assay [2] amounted to 0.4 µM.

`CC1(C)CN(c2ccccc2NC(=O)Nc2ccc(OC(F)(F)F)cc2)c2c(O)ccc(-c3cc(F)nc(F)c3)c21` [Example 111, 1-(2-(4-(2,6-Difluoropyridin-4-yl)-7-hydroxy-3,3-dimethylindolin-1-yl)phenyl)-3-(4-(trifluoromethoxy)phenyl)urea, TFA]: in assay [1], the Ki came to 7.5 nM. Moreover, the IC50 in assay [2] is 0.14 µM.

With `Cn1c(-c2ccc(O)c3c2C(C)(C)CN3c2ccccc2NC(=O)Nc2ccc(OC(F)(F)F)cc2)nc2ccccc21` [Example 88, 1-(2-(7-Hydroxy-3,3-dimethyl-4-(1-methyl-1H-benzo[d]imidazol-2-yl)indolin-1-yl)phenyl)-3-(4-(trifluoromethoxy)phenyl)urea], the Ki in assay [1] was found to be 39.7 nM. Further, the IC50 in assay [2] was 4.15 µM.

Take `CC1(C)CN(c2ccccc2NC(=O)Nc2ccc(C(F)(F)F)cc2)c2c(O)ccc(Cl)c21` [Example 57, 1-(2-(4-Chloro-7-hydroxy-3,3-dimethylindolin-1-yl)phenyl)-3-(4-(trifluoromethyl)phenyl) urea]: in assay [1], the inhibition constant (Ki) came to 8.3 nM. In assay [2], the half-inhibitory concentration (IC50) was 0.9 µM.

As to `CC1(C)CN(c2ccccc2NC(=O)Nc2nc3ccc(Cl)cc3s2)c2c(O)cc(F)c(-c3ccc(Cl)cc3)c21` [Example 225, 1-(6-Chlorobenzo[d]thiazol-2-yl)-3-(2-(4-(4-chlorophenyl)-5-fluoro-7-hydroxy-3,3-dimethylindolin-1-yl)phenyl)urea], the Ki in assay [1] amounted to 34.7 nM. Further, in assay [2], the concentration for half-maximal inhibition (IC50) stood at 0.36 µM.

Turning to `Cc1ccc2nc(-c3ccc(O)c4c3C(C)(C)CN4c3ccccc3NC(=O)Nc3ccc(OC(F)(F)F)cc3)oc2c1` [Example 95, 1-(2-(7-Hydroxy-3,3-dimethyl-4-(6-methylbenzo[d]oxazol-2-yl)indolin-1-yl)phenyl)-3-(4-(trifluoromethoxy)phenyl)-urea], the Ki in assay [1] was 33.3 nM. The IC50 in assay [2] worked out at 0.46 µM.

For `CC1(C)CN(c2ccccc2NC(=O)Nc2ccc(OC(F)(F)F)cc2)c2c(O)ccc(-c3cncc(Cl)c3)c21` [Example 116, 1-(2-(4-(5-Chloropyridin-3-yl)-7-hydroxy-3,3-dimethylindolin-1-yl)phenyl)-3-(4-(trifluoromethoxy)phenyl) urea], the Ki in assay [1] turned out to be 22.4 nM. In assay [2], the 50% inhibitory concentration (IC50) is 0.5 µM.

With `CCC1(CC)CN(c2ccccc2NC(=O)Nc2ccc(C3CCCN3CC(C)(C)C)cc2)c2c(O)cccc21` (stereo not shown) [Example 7, 1-(2-(3,3-Diethyl-7-hydroxyindolin-1-yl)phenyl)-3-(4-(1-neopentylpyrrolidin-2-yl)phenyl)urea], the inhibition constant (Ki) in assay [1] amounted to 8.6 nM. The 50% inhibitory concentration (IC50) in assay [2] was 0.55 µM.

With `CC1(C)CN(c2ccccc2NC(=O)Nc2nc3ccc(Cl)nc3s2)c2c(O)cc(F)c(-c3cc(C(F)(F)F)no3)c21` [Example 263, 1-(5-Chlorothiazolo[5,4-b]pyridin-2-yl)-3-(2-(5-fluoro-7-hydroxy-3,3-dimethyl-4-(3-(trifluoromethyl)isoxazol-5-yl)indolin-1-yl)phenyl)urea], the inhibition constant (Ki) in assay [1] was 20.5 nM. Besides, the IC50 in assay [2] came out at 0.84 µM.
